# Patent US9066861B2 (priority 2009, dated 2015)
# Key:
# [1] = Stability analysis of raw API by titration method (BP); assay type: physicochemical; conditions: after 3 Months
# From the text: (§1) In both studies the * Initial denotes the results of the samples tested at the time of receipt of the API from the supplier.
# [2] = Stability analysis of raw API by stability indicating HPLC method; assay type: physicochemical; conditions: for Assay (%) HPLC / Percentage Drop (%) HPLC / loss in 3 Months: raw API; for Assay (%) HPLC / Percentage Drop (%) HPLC: after 3 Months
# From the text: as §1
smiles,measurement,setting,value
CC(=O)O[C@H]1C[C@@]2(C)[C@@H](C[C@@H](O)[C@H]3[C@@]4(C)CC[C@@H](O)[C@@H](C)[C@@H]4CC[C@@]32C)/C1=C(\CCC=C(C)C)C(=O)O [Sodium Fusidate],Assay (%) Titration,[1]; 45° C. (C) closed Petri dish,97.16%
same,Percentage Drop (%) Titration,[1]; 45° C. (C) closed Petri dish,1.54%
same,Assay (%) Titration,[1]; 45° C. (O) open Petri dish,97.07%
same,Percentage Drop (%) Titration,[1]; 45° C. (O) open Petri dish,1.63%
same,Assay (%) Titration,[1]; RT (C) closed Petri dish,98.85%
same,Percentage Drop (%) Titration,[1]; RT (C) closed Petri dish,−0.15%
same,Assay (%) Titration,[1]; RT (O) open Petri dish,97.71%
same,Percentage Drop (%) Titration,[1]; RT (O) open Petri dish,0.99%
same,Initial (%),"[2]; raw API tested at the time of receipt from the supplier, method not stated",98.7%
same,Assay (%) HPLC,[2]; 45° C. (C) closed Petri dish,92.96%
same,Percentage Drop (%) HPLC,[2]; 45° C. (C) closed Petri dish,5.74%
same,Assay (%) HPLC,[2]; 45° C. (O) open Petri dish,92.65%
same,Percentage Drop (%) HPLC,[2]; 45° C. (O) open Petri dish,6.05%
same,loss in 3 Months,[2]; 45° C. (open condition),about 6%
same,Assay (%) HPLC,[2]; RT (C) closed Petri dish,97.67%
same,Percentage Drop (%) HPLC,[2]; RT (C) closed Petri dish,1.03%
same,Assay (%) HPLC,[2]; RT (O) open Petri dish,96.25%
same,Percentage Drop (%) HPLC,[2]; RT (O) open Petri dish,2.45%
same,loss in 3 Months,[2]; room temperature (open condition),about 2.5%
same,"stability as an API, Sodium Fusidate compared with Fusidic acid","[2]; raw APIs, Tables 1 and 2",significantly more stable than Fusidic acid
